Laboratory results from patent publication US6573275B1, “Bicyclic amines” (Syngenta Limited, priority 1995, dated 2003).

System: peach aphid (Myzus persicae)
Test: Insecticidal test against peach aphid, infested Chinese cabbage leaves sprayed
Type: in vivo
Settings: peach aphid (Myzus persicae) on Chinese cabbage leaves, sprayed with 500 ppm composition unless otherwise stated, mortality assessed after 3 days
Outline: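 Aphid-infested Chinese cabbage leaves were sprayed with compound at 500 ppm unless otherwise stated, formulated in acetone/ethanol diluted with water containing 0.05% Synperonic NP8. Mortality was assessed after 3 days.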

Row | Compound | Score (grading of mortality)
1 | CN1C2CCC1CC(C#N)(c1cc(Cl)cc(Cl)c1)C2 (stereo not shown) [Compound 1] | A (A indicates 80-100% mortality)
2 | CCC(C)(C)N1C2CCC1CC(C#N)(c1cccnc1)C2 (stereo not shown) [Compound 196] | A (A indicates 80-100% mortality)
3 | N#CC1(c2cncc(Cl)c2)CC2CCC(C1)N2Cc1cc(C(F)(F)F)cc(C(F)(F)F)c1 (stereo not shown) [Compound 227] | A (A indicates 80-100% mortality)
4 | N#CC1(c2cncc(Cl)c2)CC2CCC(C1)N2c1c(F)c(F)c(F)c(F)c1F (stereo not drawn) [Compound 151, exo-3-(5-chloropyrid-3-yl)-endo-3-cyano-8-pentafluorophenyl-8-azabicyclo[3.2.1]octane] | A (A indicates 80-100% mortality)
5 | N#CC1(c2cncc(Cl)c2)CC2CCC(C1)N2C=O (stereo not drawn) [Compound 110, exo-3-(5-chloropyrid-3-yl)-endo-3-cyano-8-formyl-8-azabicyclo[3.2.1]octane] | A (A indicates 80-100% mortality)
6 | COc1cncc(C2(C#N)CC3CCC(C2)N3C)c1 (stereo not shown) [Compound 80] | A (A indicates 80-100% mortality)
7 | N#CC1(c2ccccn2)CC2CCC(C1)N2CCF (stereo not shown) [Compound 120] | A (A indicates 80-100% mortality)
8 | N#CC1(c2cncc(Cl)c2)CC2CCC(C1)N2Cc1cccc(Cl)c1 (stereo not shown) [Compound 261] | A (A indicates 80-100% mortality)
9 | N#CC1(c2cncc(Cl)c2)CC2CCC(C1)N2Cc1c(F)cc(F)cc1F (stereo not shown) [Compound 113] | A (A indicates 80-100% mortality)
10 | N#CC1(c2cncc(Cl)c2)CC2CCC(C1)N2c1cc(Cl)ncn1 (stereo not shown) [Compound 152] | A (A indicates 80-100% mortality)
11 | N#Cc1ccc(N2C3CCC2CC(C#N)(c2cncc(Cl)c2)C3)cc1 (stereo not shown) [Compound 105] | B (B indicates 40-79% mortality)
12 | CC(C)(C)C(=O)c1ccc(CN2C3CCC2CC(C#N)(c2cncc(Cl)c2)C3)cc1 (stereo not shown) [Compound 245] | A (A indicates 80-100% mortality)
13 | N#C[C@@]1(c2cncc(Cl)c2)C[C@H]2CC[C@@H](C1)N2Cc1ccccc1 [Compound 237, exo-3-(5-chloropyrid-3-yl)-endo-3-cyano-8-benzyl-8-azabicyclo[3.2.1]octane] | A (A indicates 80-100% mortality)
14 | Cc1cccc(CN2C3CCC2CC(C#N)(c2cncc(Cl)c2)C3)c1 (stereo not shown) [Compound 242] | A (A indicates 80-100% mortality)
15 | C=CCN1C2CCC1CC(C#N)(c1cccnc1)C2 (stereo not shown) [Compound 35] | A (A indicates 80-100% mortality)
16 | CC(C)CN1C2CCC1CC(C#N)(c1cncc(Cl)c1)C2 (stereo not shown) [Compound 276] | A (A indicates 80-100% mortality)
17 | CCCCCCCCCCN1C2CCC1CC(C#N)(c1cncc(Cl)c1)C2 (stereo not shown) [Compound 277] | A (A indicates 80-100% mortality)
18 | N#CC1(c2cncc(Cl)c2)CC2CCC(C1)N2C(=O)c1ccc(F)cc1 (stereo not shown) [Compound 98] | A (A indicates 80-100% mortality)
19 | N#CC1(c2cncc(Br)c2)CC2CCC(C1)N2Cc1ccccc1Cl (stereo not shown) [Compound 204] | A (A indicates 80-100% mortality)
20 | N#CC1(c2cncc(Cl)c2)CC2CCC(C1)N2CC(F)F (stereo not drawn) [Compound 142, exo-3-(5-chloropyrid-3-yl)-endo-3-cyano-8-(2,2-difluoroethyl)-8-azabicyclo[3.2.1]octane] | A (A indicates 80-100% mortality)
21 | N#Cc1ccccc1CN1C2CCC1CC(C#N)(c1cncc(Cl)c1)C2 (stereo not shown) [Compound 267] | A (A indicates 80-100% mortality)
22 | N#CC1(c2ccnc(Cl)n2)CC2CCC(C1)N2CC(F)(F)F (stereo not shown) [Compound 297] | A (A indicates 80-100% mortality)
23 | N#CC1(c2cncc(Cl)c2)CC2CCC(C1)N2c1ccc(C(F)(F)F)cc1 (stereo not shown) [Compound 188] | A (A indicates 80-100% mortality)
24 | CCOCN1C2CCC1CC(C#N)(c1cccnc1)C2 (stereo not shown) [Compound 48] | A (A indicates 80-100% mortality)
25 | CCOC(=O)CN1C2CCC1CC(C#N)(c1cncc(Cl)c1)C2 (stereo not shown) [Compound 86] | A (A indicates 80-100% mortality)
26 | CC(C)(c1cccc(Cl)c1)N1C2CCC1CC(C#N)(c1cncc(Cl)c1)C2 (stereo not shown) [Compound 205] | A (A indicates 80-100% mortality)

Row | Compound | Score (grading of mortality)
27 | N#CC1(c2cncc(Cl)c2)CC2CCC(C1)N2Cc1cccc(F)c1 (stereo not shown) [Compound 253] | A (A indicates 80-100% mortality)
28 | CN1C2CCC1CC(C#N)(c1cccc(Cl)c1Cl)C2 (stereo not shown) [Compound 5] | A (A indicates 80-100% mortality)
29 | N#CC1(c2cncc(Cl)c2)CC2CCC(C1)N2C(=O)OCC1c2ccccc2-c2ccccc21 (stereo not shown) [Compound 85] | A (A indicates 80-100% mortality)
30 | C[C@H](c1ccccc1)N1C2CCC1CC(C#N)(c1cncc(Cl)c1)C2 (stereo partly drawn) [Compound 121, (R)-exo-3-(5-chloropyrid-3-yl)-endo-3-cyano-8-(1-phenylethyl)-8-azabicyclo[3.2.1]octane] | A (A indicates 80-100% mortality)
31 | CCOC(=O)CN1C2CCC1CC(C#N)(c1cccnc1)C2 (stereo not shown) [Compound 50] | A (A indicates 80-100% mortality)
32 | CN1C2CCC1CC(C#N)(c1cnccn1)C2 (stereo not drawn) [Compound 62, exo-3-(pyrazin-2-yl)-endo-3-cyano-8-methyl-8-azabicyclo[3.2.1]octane] | A (A indicates 80-100% mortality)
33 | N#CC1(c2cncc(-c3ccccc3)c2)CC2CCC(C1)N2 (stereo not drawn) [Compound 220, exo-3-(5-phenylpyrid-3-yl)-endo-3-cyano-8-azabicyclo[3.2.1]octane] | A (A indicates 80-100% mortality)
34 | N#CC1(c2cc(F)cc(F)c2)CC2CCC(C1)N2Cc1ccc(Cl)s1 (stereo not shown) [Compound 27] | A (A indicates 80-100% mortality)
35 | C=CCOC(=O)N1C2CCC1CC(C#N)(c1cncc(Cl)c1)C2 (stereo not shown) [Compound 90] | A (A indicates 80-100% mortality)
36 | N#CC1(c2cncc(Cl)c2)CC2CCC(C1)N2Cc1cc(F)cc(Br)c1 (stereo not shown) [Compound 251] | A (A indicates 80-100% mortality)
37 | C=COC(=O)N1C2CCC1CC(C#N)(c1cncc(C)c1)C2 (stereo not drawn) [Compound 221, exo-3-(5-methylpyrid-3-yl)-endo-3-cyano-8-(vinyloxycarbonyl)-8-azabicyclo[3.2.1]octane] | A (A indicates 80-100% mortality)
38 | CCOC(=O)CCN1C2CCC1CC(C#N)(c1cncc(Cl)c1)C2 (stereo not drawn) [Compound 140, exo-3-(5-chloropyrid-3-yl)-endo-3-cyano-8-(2-(ethoxycarbonyl)ethyl)-8-azabicyclo[3.2.1]octane] | A (A indicates 80-100% mortality)
39 | COc1ccc(C2(C#N)CC3CCC(C2)N3Cc2ccccc2)cc1 (single isomer, unassigned) [Compound 6] | C (C indicates less than 40% mortality)
40 | N#CC1(c2cncc(Cl)c2)CC2CCC(C1)N2Cc1ccc(Cl)s1 (stereo not shown) [Compound 125] | A (A indicates 80-100% mortality)
41 | C=CCc1c(F)c(F)c(CN2C3CCC2CC(C#N)(c2cncc(Cl)c2)C3)c(F)c1F (stereo not shown) [Compound 234] | A (A indicates 80-100% mortality)
42 | C=CCN1C2CCC1CC(C#N)(c1cc(F)cc(F)c1)C2 (stereo not shown) [Compound 21] | A (A indicates 80-100% mortality)
43 | COCCN1C2CCC1CC(C#N)(c1cncc(Cl)c1)C2 (stereo not shown) [Compound 288] | A (A indicates 80-100% mortality)
44 | N#CC1(c2cncc(Cl)c2)CC2CCC(C1)N2C(=O)N1CCOCC1 (stereo not shown) [Compound 149] | A (A indicates 80-100% mortality)
45 | N#CC1(c2cncc(Cl)c2)CC2CCC(C1)N2CCCF (stereo not shown) [Compound 99] | A (A indicates 80-100% mortality)
46 | N#CC1(c2cccnc2)CC2CCC(C1)N2 (stereo not drawn) [Compound 36, exo-3-(pyrid-3-yl)-endo-3-cyano-8-azabicyclo[3.2.1]octane] | A (A indicates 80-100% mortality)
47 | C#CC(C)(C)N1C2CCC1CC(C#N)(c1cncc(Cl)c1)C2 (stereo not shown) [Compound 207] | A (A indicates 80-100% mortality)
48 | N#CC1(c2cncc(Cl)n2)CC2CCC(C1)N2 (stereo not shown) [Compound 299] | A (A indicates 80-100% mortality)
49 | CN1C2CCC1CC(C#N)(c1cc(Cl)nc(Cl)c1)C2 (stereo not drawn) [Compound 65, exo-3-(2,6-dichloropyrid-4-yl)-endo-3-cyano-8-methyl-8-azabicyclo[3.2.1]octane] | C (C indicates less than 40% mortality)
50 | N#CC1(c2ccccc2)CC2CCC(C1)N2Cc1ccccc1 (single isomer, unassigned) [Compound 32] | A (A indicates 80-100% mortality)
51 | N#CC1(c2cccnc2)CC2CCC(C1)N2Cc1ccccc1 (stereo not drawn) [Compound 37, exo-3-(pyrid-3-yl)-endo-3-cyano-8-benzyl-8-azabicyclo[3.2.1]octane] | A (A indicates 80-100% mortality)
52 | N#CC1(c2cncc(Cl)c2)CC2CCC(C1)N2Cc1cccc([N+](=O)[O-])c1 (stereo not shown) [Compound 274] | A (A indicates 80-100% mortality)
